{"source": "paper PMC6007841", "about": "(Journal of medicinal chemistry, 2018)", "key": {"hMC1R [1]": {"molecular_target": "T1, hMC1R (Homo sapiens, UniProt Q01726)", "T1 sequence (Q01726 whole entry)": "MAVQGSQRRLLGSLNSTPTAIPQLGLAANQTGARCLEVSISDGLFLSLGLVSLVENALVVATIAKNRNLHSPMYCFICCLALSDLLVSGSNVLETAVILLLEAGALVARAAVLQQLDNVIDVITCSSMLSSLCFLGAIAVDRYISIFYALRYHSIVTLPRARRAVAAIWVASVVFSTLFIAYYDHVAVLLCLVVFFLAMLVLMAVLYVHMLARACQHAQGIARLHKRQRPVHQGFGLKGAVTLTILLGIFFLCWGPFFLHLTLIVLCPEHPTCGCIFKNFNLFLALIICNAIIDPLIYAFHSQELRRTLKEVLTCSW", "test": "cAMP AlphaScreen agonist assay, hMC1R", "settings": "hMC1R; up to 100 μM; HEK293 cells, cAMP"}, "hMC4R [2]": {"molecular_target": "T2, hMC4R (Homo sapiens, UniProt P32245)", "T2 sequence (P32245 whole entry)": "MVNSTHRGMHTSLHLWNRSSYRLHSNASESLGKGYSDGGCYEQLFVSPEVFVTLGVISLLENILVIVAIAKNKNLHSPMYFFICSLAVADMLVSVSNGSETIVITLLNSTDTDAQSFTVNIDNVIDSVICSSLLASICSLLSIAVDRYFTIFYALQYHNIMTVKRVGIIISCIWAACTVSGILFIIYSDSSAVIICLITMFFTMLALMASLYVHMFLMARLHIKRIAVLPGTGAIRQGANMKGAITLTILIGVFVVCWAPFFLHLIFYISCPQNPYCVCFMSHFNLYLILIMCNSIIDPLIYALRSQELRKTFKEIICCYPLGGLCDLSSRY", "test": "cAMP AlphaScreen agonist assay, hMC4R", "settings": "hMC4R; up to 100 μM; HEK293 cells, cAMP"}, "MC1R [3]": {"system": "MC1R", "settings": "primary melanocytes, cited from earlier work"}, "hMC4R [4]": {"molecular_target": "T2, hMC4R", "test": "Competitive displacement binding, [125I]-NDP-MSH, hMC4R", "settings": "100 μM, stably expressing HEK293 cells, 1 h incubation"}, "hMC4R [5]": {"molecular_target": "T2, hMC4R", "settings": "transiently transfected HEK293 cells, Eu-NDP-MSH, 2 h incubation; cited from earlier work"}, "mMC5R": {"molecular_target": "mMC5R (Mus musculus, UniProt P41149)", "sequence (P41149 whole entry)": "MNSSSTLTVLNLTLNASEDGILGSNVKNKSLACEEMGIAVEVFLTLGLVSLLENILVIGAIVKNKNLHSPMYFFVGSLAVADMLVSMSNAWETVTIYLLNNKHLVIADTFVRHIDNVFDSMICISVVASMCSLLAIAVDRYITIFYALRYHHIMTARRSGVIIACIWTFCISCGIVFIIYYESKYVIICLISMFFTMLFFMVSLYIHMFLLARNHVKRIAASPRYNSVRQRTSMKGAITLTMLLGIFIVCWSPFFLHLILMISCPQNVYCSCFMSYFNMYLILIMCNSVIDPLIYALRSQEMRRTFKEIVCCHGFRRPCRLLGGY", "test": "cAMP AlphaScreen agonist assay, mMC5R", "settings": "mMC5R; up to 100 μM; HEK293 cells, cAMP"}, "MC1R [6]": {"system": "MC1R", "settings": "B16 cells, cited from earlier work"}, "male Wistar rats [7]": {"system": "male Wistar rats", "settings": "ad libitum; adult male Wistar rats; up to 2 nmol; cited from earlier work"}, "MC1R [8]": {"system": "MC1R", "settings": "cited from earlier work"}, "hMC1R [9]": {"molecular_target": "T1, hMC1R", "settings": "transiently transfected HEK293 cells, Eu-NDP-MSH, 2 h incubation; cited from earlier work"}, "hMC1R [10]": {"molecular_target": "T1, hMC1R", "settings": "human MC1R; HEK293 cells; cited from earlier work"}, "mMC1R": {"molecular_target": "mMC1R (Mus musculus, UniProt Q01727)", "sequence (Q01727 whole entry)": "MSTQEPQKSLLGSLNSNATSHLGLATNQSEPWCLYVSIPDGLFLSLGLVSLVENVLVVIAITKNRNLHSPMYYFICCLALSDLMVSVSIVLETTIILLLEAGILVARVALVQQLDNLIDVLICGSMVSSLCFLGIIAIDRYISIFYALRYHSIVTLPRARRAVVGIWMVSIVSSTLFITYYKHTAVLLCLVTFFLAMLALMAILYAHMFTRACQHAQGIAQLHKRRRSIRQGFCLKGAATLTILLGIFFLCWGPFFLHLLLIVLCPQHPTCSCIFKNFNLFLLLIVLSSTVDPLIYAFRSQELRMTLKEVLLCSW", "test": "cAMP AlphaScreen agonist assay, mMC1R", "settings": "mMC1R; up to 100 μM; HEK293 cells, cAMP"}, "male Wistar rats [11]": {"system": "male Wistar rats", "settings": "7 μg (1.2 nmol) ICV at the onset of a 24 h fast, vs vehicle; cited from earlier work"}}, "note": "Entries after “also recorded” stand apart in the source; their conditions may differ. Like-named read-outs stand apart in the source and are kept apart here. Bridge positions count the residues as written; N and C are the ends. Ends that are not written are not given here.", "data": [{"sequence": "GIINTLQKYYCRVRGGRCAVLSCLPKEEQIGKCSTRGRKCCRRKK (disulfide 11-40, 18-33, 23-41) [hBD3]", "values": [{"measurement": "Agonist efficacy (in words)", "setting": "hMC1R [1]", "result": "Full agonist activity"}, {"measurement": "Agonist efficacy (in words)", "setting": "hMC4R [2]", "result": "Full agonist activity"}, {"measurement": "Effect on α-MSH induction of cAMP", "setting": "MC1R [3]; 100 nM", "result": "lower the agonist induction of cAMP"}, {"measurement": "cAMP signal", "setting": "MC1R [3]; up to 100 nM", "result": "no cAMP signal"}, {"measurement": "Displacement of radiolabeled NDP-MSH at 100 μM", "setting": "hMC4R [4]", "result": 50, "unit": "%"}, {"measurement": "Binding affinity", "setting": "hMC4R [5]", "result": 110, "unit": "nM"}, {"measurement": "Agonist efficacy (in words)", "setting": "mMC5R", "result": "Full agonist activity"}, {"measurement": "Effect on NDP-MSH induction of cAMP", "setting": "MC1R [6]; 100 nM", "result": "lower the agonist induction of cAMP"}, {"measurement": "cAMP signal", "setting": "MC1R [6]; up to 100 nM", "result": "no cAMP signal"}, {"measurement": "Food intake or body weight change", "setting": "male Wistar rats [7]", "result": "does not result in a statistical change in food intake or body weight change"}, {"measurement": "Effect on NDP-MSH induction of cAMP", "setting": "MC1R [8]; HEK293 cells expressing the MC1R, 100 nM", "result": "lower the agonist induction of cAMP"}, {"measurement": "cAMP response vs maximal response of 1 nM NDP-MSH", "setting": "MC1R [8]; HEK293 cells expressing the MC1R, 300 nM", "result": "lower than the maximal response of 1 nM NDP-MSH"}, {"measurement": "cAMP levels", "setting": "MC1R [8]; HEK293 cells, 100 and 300 nM", "result": "dose dependent increase in cAMP levels"}, {"measurement": "Binding affinity", "setting": "hMC1R [9]", "result": 42, "unit": "nM"}, {"measurement": "Binding affinity", "setting": "hMC1R [10]", "result": 13.8, "unit": "nM"}, {"measurement": "Agonist efficacy (in words)", "setting": "mMC1R", "result": "Full agonist activity"}, {"measurement": "Body weight", "setting": "male Wistar rats [11]", "result": "decreased weight gain; also recorded: slower return to pre-fast weight"}, {"measurement": "Food intake", "setting": "male Wistar rats [11]", "result": "decrease food intake; also recorded: significant decreases in food intake; also recorded: consumed less food"}]}]}
